Test results reported in patent US6342765B1, “Imidazole derivatives and their use as farnesyl protein transferase inhibitors” (AstraZeneca UK Limited, priority 1997, dated 2002).

Tests used:
[1] = target: T1, Farnesyl protein transferase (FPT) (Homo sapiens, UniProt P49354+P49356); test: In-vitro farnesyl protein transferase assay (farnesylation of Ki-ras with radiolabelled farnesyl pyrophosphate); assay type: biochemical; details: read-out: IC50 in the above test
T1 construct: partially purified from human placenta; from tissue; host or cells: human placenta
Procedure: The following stock solutions were used and the assays were conducted in 96 well plates: TRIS Buffer (500 mM TRIS, 50 mM MgCl2.6H2O, pH=8.0); Farnesyl pyrophosphate (6.4 mg/ml); Aprotinin (1.9 mg/ml); Ki-ras (0.5 mg/ml, stored at −80° C.); Acid ethanol (850 ml absolute ethanol+150 ml concentrated HCl).
Farnesyl protein transferase (FPT) was partially purified from human placenta by t ammonium sulphate fractionation followed by a single Q-Sepharose™ (Pharmacia, Inc) anion exchange chromatography essentially as described by Ray and Lopez-Belmonte (Ray K P and Lopez-Belmonte J (1992) Biochemical Society Transactions 20 494-497). The substrate for FPT was Kras (CVIM C-terminal sequence). The cDNA for oncogenic val12 variant of human c-Ki-ras-2 4B was obtained from the plasmid pSW11-1 (ATCC). This was then subcloned into the polylinker of a suitable expression vector e.g. pIC147. The Kras was obtained after expression in the E. coli strain, BL21. […]
Assays were performed in 96 well plates as follows: 10 μl of test compound solution was added to each well. […] Precipitated protein was then collected onto glass fibre filter mats (B) using a Tomtec™ cell harvester and tritiated label was measured in a Wallac™1204 Betaplate scintillation counter. […]

melting point [°C] | IC50 [1] [nM] | Structure (SMILES)
50 to 53 |  | CSCC[C@H](NC(=O)c1ccc(COC(Cn2ccnc2)c2nccs2)cc1-c1ccc(F)cc1)C(=O)OC(C)(C)C (stereo partly drawn) [Example 16, Tert-butyl (2S)-2-{2-(4-fluorophenyl)-4-[1-(thiazol-2-yl)-2-(imidazol-1-yl)ethoxymethyl]benzoylamino}-4-methylsulfanylbutyrate]
 | ~1 | CSCC[C@H](NC(=O)c1ccc(COC(Cn2ccnc2)c2ccc(F)cc2)cc1-c1ccc(F)cc1)C(=O)O (stereo partly drawn) [Example 2, (2S)-2-{2-(4-fluorophenyl)-4-[2-(imidazol-1-yl)-1-(4-fluorophenyl)ethoxymethyl]benzoylamino]-4-methylsulfanylbutyric acid]
